test system: collagen 1 (COL1); test: WI-38 collagen 1 inhibition assay; assay type: cell-based, human; conditions: Cellular EC50, WI-38 cells; values are classes of LogEC50
Excerpt: All compounds were profiled for cellular potency in inhibition of collagen 1 (COL1) protein translation using a phenotypic screening platform.
WI-38 cells (ATCC® CCL-75™) were maintained in MEM EAGLE (NEAA) W. GLUTAMIN (Biological Industries, Cat. 06-1040-15-1A) containing 10% fetal bovine serum (FBS) and 1% Penicillin-Streptomycin Solution. To synchronize the cells (cell cycle synchronization) prior to induction of collagen synthesis, the cells were starved using DMEM-low glucose supplemented with 0.25% FBS for two hours and then without FBS for 24 hours. To induce collagen synthesis, the cells were treated with a collagen induction cocktail for the indicated time. Compounds were added with induction.
Cells in 96-well or 384-well plates were fixed for 20 min in 4% paraformaldehyde (PFA, ENCO, Cat. sc-281692). Following two washes with 1×PBS, cells were treated with hydrogen peroxide (Acros, Cat: 7722-84-1) for 10 minutes and then washed twice with 1×PBS. Cells were then incubated over-night at 4° C. with Anti-Collagen I (Sigma-Aldrich, Cat: C 2456) antibody and washed three times with 1×PBS. Cells were then incubated with a suitable secondary fluorescently-tagged antibody and nuclei stained with DAPI, for 1 hour, and then washed 3 times with 1×PBS.
Cell images were taken with Operetta (Perkin Elmer, USA), a wide-field fluorescence microscope at 20× magnification. After acquisition, the images were transferred to Columbus software (Perkin-Elmer) for image analysis. In Columbus, cells were identified by their nucleus, using the “Find Nuceli” module and cytoplasm was detected based on the secondary antibody channel. Subsequently, the fluorescent signal was enumerated in the identified cell region. Data was exported to a data analysis and visualization software, Tibco Spotfire, USA.

Structure (SMILES)	COL1 Efficacy (LogEC50)
Cc1ccc(C(=O)Nc2nc(-c3cccnc3C)cs2)cn1 [Compound 344, 6-methyl-N-[4-(2-methyl-3-pyridyl)thiazol-2-yl]pyridine-3-carboxamide]	+++ (+++: <−6)
Cc1ccc(C(=O)Nc2nc(-c3cncnc3C)cs2)cn1 [Compound 347, 6-methyl-N-[4-(4-methylpyrimidin-5-yl)thiazol-2-yl]pyridine-3-carboxamide]	++ (++: −5 to −6)
O=C(Nc1nc(-c2ccccc2Cl)co1)c1ccc(N2CCOCC2)cc1 [Compound 368, N-[4-(2-chlorophenyl)oxazol-2-yl]-4-morpholino-benzamide]	++ (++: −5 to −6)
O=C(Nc1nc(-c2ccccn2)cs1)c1ccc(N2CCOCC2)cc1 [Compound 370, 4-morpholino-N-[4-(2-pyridyl)thiazol-2-yl]benzamide]	+ (+: >−5)
COCCC(=O)N1CCN(c2ccc(C(=O)Nc3nc(-c4ccccc4Cl)cs3)cc2)CC1 [Compound 376, N-(4-(2-chlorophenyl)thiazol-2-yl)-4-(4-(3-methoxypropanoyl)piperazin-1-yl)benzamide]	+++ (+++: <−6)
COCCN1CCN(c2ccc(C(=O)Nc3nc(-c4ccccc4Cl)cs3)cc2)CC1 [Compound 377, N-(4-(2-chlorophenyl)thiazol-2-yl)-4-(4-(2-methoxyethyl)piperazin-1-yl)benzamide]	+++ (+++: <−6)
COCCOc1ccccc1-c1csc(NC(=O)c2ccc(N3CCOCC3)cc2)n1 [Compound 378, N-(4-(2-(2-methoxyethoxy)phenyl)thiazol-2-yl)-4-morpholinobenzamide]	+ (+: >−5)
COCCOCc1ccccc1-c1csc(NC(=O)c2ccc(N3CCOCC3)cc2)n1 [Compound 379, N-(4-(2-((2-methoxyethoxy)methyl)phenyl)thiazol-2-yl)-4-morpholinobenzamide]	++ (++: −5 to −6)
O=C(Nc1nc(-c2ccccc2Cl)cs1)c1ccc(C2CCOCC2)cc1 [Compound 380, N-(4-(2-chlorophenyl)thiazol-2-yl)-4-(tetrahydro-2H-pyran-4-yl)benzamide]	+++ (+++: <−6)
O=C(Nc1nc(-c2ccccc2Cl)cs1)c1ccc(C2CCOCC2)cn1 [Compound 381, N-(4-(2-chlorophenyl)thiazol-2-yl)-5-(tetrahydro-2H-pyran-4-yl)picolinamide]	+++ (+++: <−6)
O=C(Nc1nc(-c2ccccc2Cl)cs1)c1ccc(C2CCS(=O)(=O)CC2)cn1 [Compound 383, N-(4-(2-chlorophenyl)thiazol-2-yl)-5-(1,1-dioxidotetrahydro-2H-thiopyran-4-yl)picolinamide]	+++ (+++: <−6)
O=C(Nc1nc(N2CCCC2=O)cs1)c1ccc(N2CCOCC2)cn1 [Compound 395, 5-morpholino-N-(4-(2-oxopyrrolidin-1-yl)thiazol-2-yl)picolinamide]	+ (+: >−5)
CN(C(=O)c1ccc(N2CCOCC2)cc1)c1nc(-c2ccccc2Cl)cs1 [Compound 399, N-(4-(2-chlorophenyl)thiazol-2-yl)-N-methyl-4-morpholinobenzamide]	++ (++: −5 to −6)
CN(C(=O)c1ccc(N2CCOCC2)cn1)c1nc(-c2ccccc2Cl)cs1 [Compound 400, N-(4-(2-chlorophenyl)thiazol-2-yl)-N-methyl-5-morpholinopicolinamide]	++ (++: −5 to −6)
CS(=O)(=O)N1CCN(c2ccc(C(=O)Nc3nc(-c4ccccc4Cl)cs3)nc2)CC1 [Compound 403, N-(4-(2-chlorophenyl)thiazol-2-yl)-5-(4-(methylsulfonyl)piperazin-1-yl)picolinamide]	+++ (+++: <−6)
O=C(Nc1nc(-c2ccccc2Cl)c[nH]1)c1ccc(N2CCOCC2)cn1 [Compound 404, N-(4-(2-chlorophenyl)-1H-imidazol-2-yl)-5-morpholinopicolinamide]	+++ (+++: <−6)
O=C(Nc1nc(-c2ccccc2Cl)cs1)c1ccc(N2CCOCC2)cc1Cl [Compound 409, 2-chloro-N-(4-(2-chlorophenyl)thiazol-2-yl)-4-morpholinobenzamide]	++ (++: −5 to −6)

Structure (SMILES)	COL1 Efficacy (LogEC50)
Cc1cc(N2CCOCC2)ccc1C(=O)Nc1nc(-c2ccccc2Cl)cs1 [Compound 410, N-(4-(2-chlorophenyl)thiazol-2-yl)-2-methyl-4-morpholinobenzamide]	+++ (+++: <−6)
O=C(Nc1nc(-c2ccccc2Cl)cs1)c1ccc(N2CCOCC2)cc1C(F)(F)F [Compound 411, N-(4-(2-chlorophenyl)thiazol-2-yl)-4-morpholino-2-(trifluoromethyl)benzamide]	+++ (+++: <−6)
O=C(Nc1nc(-c2ccccc2Cl)cs1)C12CC(N3CCOCC3)(C1)C2 [Compound 416, N-(4-(2-chlorophenyl)thiazol-2-yl)-3-morpholinobicyclo[1.1.1]pentane-1-carboxamide]	++ (++: −5 to −6)
CS(=O)(=O)N1CCN(C23CC(C(=O)Nc4nc(-c5ccccc5Cl)cs4)(C2)C3)CC1 [Compound 418, N-(4-(2-chlorophenyl)thiazol-2-yl)-3-(4-(methylsulfonyl)piperazin-1-yl)bicyclo[1.1.1]pentane-1-carboxamide]	++ (++: −5 to −6)
O=C(Nc1nc(-c2ccccc2Cl)cs1)C1CC(N2CCOCC2)C1 (stereo not shown) [Compound 421, (1s,3s)-N-(4-(2-chlorophenyl)thiazol-2-yl)-3-morpholinocyclobutane-1-carboxamide]	+ (+: >−5)
CS(=O)(=O)N1CCN(C(=O)[C@H]2C[C@H](C(=O)Nc3nc(-c4ccccc4Cl)cs3)C2)CC1 [Compound 430, (1r,3r)-N-(4-(2-chlorophenyl)thiazol-2-yl)-3-(4-(methylsulfonyl)piperazine-1-carbonyl)cyclobutane-1-carboxamide]	+ (+: >−5)
COc1cc(N2CCOCC2)ccc1C(=O)Nc1nc(-c2ccccc2Cl)cs1 [Compound 441, N-(4-(2-chlorophenyl)thiazol-2-yl)-2-methoxy-4-morpholinobenzamide]	++ (++: −5 to −6)
CN(C)CC(=O)N1CCN(c2ccc(C(=O)Nc3nc(-c4ccccc4Cl)cs3)nc2)CC1 [Compound 443, N-(4-(2-chlorophenyl)thiazol-2-yl)-5-(4-(dimethylglycyl)piperazin-1-yl)picolinamide]	+++ (+++: <−6)
CN(C)CCC(=O)N1CCN(c2ccc(C(=O)Nc3nc(-c4ccccc4Cl)cs3)nc2)CC1 [Compound 444, N-(4-(2-chlorophenyl)thiazol-2-yl)-5-(4-(3-(dimethylamino)propanoyl)piperazin-1-yl)picolinamide]	+++ (+++: <−6)
O=C(Nc1nc(-c2ccccc2Cl)cs1)c1ccc(N2CCN(C(=O)CO)CC2)cn1 [Compound 445, N-(4-(2-chlorophenyl)thiazol-2-yl)-5-(4-(2-hydroxyacetyl)piperazin-1-yl)picolinamide]	+++ (+++: <−6)
O=C(Nc1nc(-c2ccccc2Cl)cs1)c1ccc(N2CCC(O)CC2)cn1 [Compound 446, N-(4-(2-chlorophenyl)thiazol-2-yl)-5-(4-hydroxypiperidin-1-yl)picolinamide]	+++ (+++: <−6)
COCc1ccccc1-c1csc(NC(=O)c2ccc(N3CCN(S(C)(=O)=O)CC3)cn2)n1 [Compound 447, N-(4-(2-(methoxymethyl)phenyl)thiazol-2-yl)-5-(4-(methylsulfonyl)piperazin-1-yl)picolinamide]	+++ (+++: <−6)
O=C(Nc1nc(-c2ccccc2Cl)cs1)c1ccc(N2CCC3(CC2)COC3)cn1 [Compound 448, N-(4-(2-chlorophenyl)thiazol-2-yl)-5-(2-oxa-7-azaspiro[3.5]nonan-7-yl)picolinamide]	+++ (+++: <−6)
COCC(=O)N1CC2(C1)CN(c1ccc(C(=O)Nc3nc(-c4ccccc4Cl)cs3)nc1)C2 [Compound 450, N-(4-(2-chlorophenyl)thiazol-2-yl)-5-(6-(2-methoxyacetyl)-2,6-diazaspiro[3.3]heptan-2-yl)picolinamide]	+++ (+++: <−6)
O=C(Nc1nc(-c2ccccc2Cl)cs1)c1ccc(N2CCN(C(=O)CCO)CC2)cn1 [Compound 455, N-(4-(2-chlorophenyl)thiazol-2-yl)-5-(4-(3-hydroxypropanoyl)piperazin-1-yl)picolinamide]	+++ (+++: <−6)
CN(C)Cc1ccccc1-c1csc(NC(=O)c2ccc(N3CCN(S(C)(=O)=O)CC3)cn2)n1 [Compound 460, N-(4-(2-((dimethylamino)methyl)phenyl)thiazol-2-yl)-5-(4-(methylsulfonyl)piperazin-1-yl)picolinamide hemiformate]	++ (++: −5 to −6)
CC(=O)N1CCN(c2csc(C(=O)Nc3nc(-c4ccccc4Cl)cs3)c2)CC1 [Compound 462, 4-(4-acetylpiperazin-1-yl)-N-(4-(2-chlorophenyl)thiazol-2-yl)thiophene-2-carboxamide]	++ (++: −5 to −6)
